Measurements taken from patent publication US12415939B2, “Nano-adhesive and surface primer compound and use thereof” (The Regents of the University of California, priority 2015, dated 2025).

Columns and labels:
[1] = OFET characterization (saturation hole mobility); conditions: Au source and drain electrodes
Excerpt: The OFETs were fabricated onto nano-grooved SiO2 substrates prepared by rubbing n^++Si (500 μm)/SiO2 (300 nm) substrate (International Wafer Services Co.) with a diamond lapping disc with particle sizes of 100 nm (Allied High Tech Products Inc.) as described in detail in the previous reports. The Ni (5 nm)/Au (50 nm) source and drain electrodes were patterned on the SiO2 dielectrics through a conventional photolithography process. For OFETs with Ni source and drain electrodes, an additional Ni (10 nm) layer was deposited on top of the pre-deposited Au electrodes. All metal electrodes were deposited by electron beam evaporation at 7×10^−7 Torr. Then, the substrates were sonicated in acetone and isopropanol for cleaning, and were kept in an oven at >100° C. for overnight. After ultraviolet/ozone treatment of pre-cleaned nano-grooved SiO2 substrates for 10 min, the substrates were passivated with the Z-Cat-Ben or Z-Cat-Ben-F SAM by dropping SAM water solution (5 mM) onto the substrates for ˜1 min. The substrates were subsequently rinsed with deionized water for ˜1 min, and were kept in a low vacuum for 10 min to remove residual water. The PCDTPT (1-Material Inc.) was then cast from a chlorobenzene solution (0.25 mg mL^−1) through the sandwich casting in a nitrogen-filled glove box. The devices were then cured at 200° C. for 1 min prior to measurements, and were tested using a probe station (Signatone Co.) in a nitrogen-filled glove box. Data were collected by a Keithley 4200 system.
The field-effect mobilities in the saturation regime were extracted using the following equation, IDS=(W/2L)Cμ(VGS−VT)^2 (7) where, W is the channel width, L is the channel length, C is the gate dielectric capacitance per unit area, μ is the carrier mobility in the saturation regime, IDS is the drain-source current, and VGS is the gate-source voltage. Channel width/length is 1000/200 μm for the devices used in this study. Transistor Characteristics of OFETs with Z-Cat-Ben and Z-Cat-Ben-F: Contact Angle Measurements: […]

[2] = QCM-D adsorption of zwitterionic molecules; type: physicochemical; conditions: silica
Excerpt: Quartz Crystal Microbalance (QCM): Adsorption of the molecules on different surfaces such as silica, SiO2, (FIGS. 7A-7E) and titania, TiO2, (FIGS. 8A-8E) was also explored by the quartz crystal microbalance (QCM) and confocal fluorescence microscopy after rhodamine staining (FIG. 27A-27B). Quartz crystal microbalance with dissipation (QCM-D): A “static cell” (often called “Open Model”) QCM-D (Q-Sense, Biolin Scientific) was employed to qualitatively show the adsorption of the zwitterionic molecules onto mineral and metal oxide surfaces. 50 μl of 5 mM zwitterionic solution was deposited onto TiO2 and SiO2 surface, respectively, in DI H2O (100 μl) using a static cell via two-step adsorption. […] However, a quantitative discussion regarding the adsorbed mass (frequency shift) and the viscoelastic properties (dissipation) of the adsorbed “soft” layers is challenging because the mass of the zwitterionic molecules cannot be separated from the mass of adsorbed water. […]
Quartz crystal microbalance with dissipation (QCM-D) is an extension to the QCM technique developed by Q-Sense® and can be used to determine the rigidity/softness and the viscoelastic properties of the adsorbed material. The QCM quartz crystal was coated with different rigid materials (e.g., metals, polymers, dielectrics) and the adsorption kinetics can be monitored on these materials in liquid environment. […]

[3] = AFM images of Z-Cat-C10 films; type: physicochemical; conditions: 5 mM, on silicon wafers and copper
Protocol: The adhesion/cohesion energy of the synthetic zwitterionic molecules was investigated in SFA (SurForce LLC, Santa Barbara, CA). Two molecularly smooth freshly cleaved back silvered mica surfaces glued on cylindrical silica discs of radius of curvature, R˜2 cm, were mounted in the SFA and 50 μL of a colloidal dispersion of the synthetic molecules in DI water were injected between the surfaces at different concentrations (C=0.5-5 mM) and the forces between the thin films of the molecules were measured by Multiple Beam Interferometry (MBI). The adhesion forces between Z-Cat-C10 molecules on various surfaces, e.g., silica and copper, were also measured by AFM (MFP-3D, Asylum research, Goleta, CA) in DI water and ambient conditions, respectively, at room temperature. AFM probes with a silicon dioxide particle (10, 5, and 1 μm, respectively) on a silicon nitride (SN) cantilever-0.6 N m^−1 were purchased from Novascan Technologies, Inc (Ames, IA). Cantilever spring constants were measured for each force run. Images of Z-Cat-C10 coating on silicon wafer and copper plates were visualized in an AFM.

| Structure (SMILES) | saturation hole mobility μ [1] | adsorbed mass ([2]; 5 mM, zero applied pressure) | adsorbed layer thickness ([2]; Voigt model) | film thickness (thin, molecularly smooth films) [3] |
| --- | --- | --- | --- | --- |
| C[N+](C)(CCCc1ccccc1)CCOP(=O)([O-])OCCCc1ccc(O)c(O)c1 [Z-Cat-Ben] | 22±4 cm^2 V^−1 s^−1 | 85 ng/cm^2 | 1 nm |  |
| CN(C)CCOP(=O)(O)OCCCc1ccc(O)c(O)c1 [Z-Cat-C10] |  |  |  | ~2 nm |
